Assay results reported in patent US20230143604A1, “QW DOSING OF GIP RECEPTOR AGONIST PEPTIDE COMPOUNDS AND USES THEREOF” (TAKEDA PHARMACEUTICAL COMPANY LIMITED, priority 2020, published 2023).
Where “and” joins values, the source holds several entries; their conditions need not be identical. Equal entries are not always repeated.

How the values were obtained:
female beagle dogs = assay: PYY-1119-induced vomiting in dogs; format: in vivo; details: 3 nmol/kg s.c., 72 hours post-dose (lower line)
Description: The GIPR agonist peptide compounds of the present disclosure or vehicle (0.09% [w/v] Tween 80/10% DMSO/PBS) were administered subcutaneously (sc) at 3-10 nmol/kg to female beagle dogs (10 months old), followed by sc injections with Y2R agonist ((4-imidazolecarbonyl-Ser-D-Hyp-Iva-Pya(4)-Cha-Leu(Me)-Asn-Lys-Aib-Thr-Arg-Gln-Arg-Cha-NH2), […]), […]) at 1 hour or specified hours in the table postdose. Emetic episodes were counted for 2 hours after administration (by blinded analysis).

human GLP-1R = molecular target: T1, human GLP-1R (Homo sapiens, UniProt P43220); assay: Human GLP1R agonist activity, intracellular cAMP accumulation; format: cell-based; details: HEK-293T cells overexpressing human GLP-1R, 1 hr, read-out: Human GLP1R cAMP EC50, HEK293T
T1 construct: HEK-293T cells overexpressing full-length human GLP-1R; FLAG (N); host or cells: HEK-293T
Outline: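 cAMP accumulation is measured by HTRF after a 1 hr, room-temperature, dark exposure of thawed cells (4×10^5 cells/mL in Krebs Ringer buffer) to compound. Activity is scaled between DMSO alone as 0% and 1 nm GLP-1 as 100%.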

C57BL/6J mice = assay: Oral glucose tolerance test (OGTT); format: in vivo; details: 3 nmol/kg s.c., 24 hours before glucose loading
Outline: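 Peptide or vehicle given s.c. at 0.1, 0.3, 3 or 10 nmol/kg (peptide-dependent), 24 h before oral 50% dextrose at 5 ml/kg unless stated otherwise. Blood glucose read at 0, 15, 30 and 60 min. % inhibition = (1−(AUC cpd−AUC naïve)/(AUC veh−AUC naïve))×100.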

T1 sequence (P43220 24-463): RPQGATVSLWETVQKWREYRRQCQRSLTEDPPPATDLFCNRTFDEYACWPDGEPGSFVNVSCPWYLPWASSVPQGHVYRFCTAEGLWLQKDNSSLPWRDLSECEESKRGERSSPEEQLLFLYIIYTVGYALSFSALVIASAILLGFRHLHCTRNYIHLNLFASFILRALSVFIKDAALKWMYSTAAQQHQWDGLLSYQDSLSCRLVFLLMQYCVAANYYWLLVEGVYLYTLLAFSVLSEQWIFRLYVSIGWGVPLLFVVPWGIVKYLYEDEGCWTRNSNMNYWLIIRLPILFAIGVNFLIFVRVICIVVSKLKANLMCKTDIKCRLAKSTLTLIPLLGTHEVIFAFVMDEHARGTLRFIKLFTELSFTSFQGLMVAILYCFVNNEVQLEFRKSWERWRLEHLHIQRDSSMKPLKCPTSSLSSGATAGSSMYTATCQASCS

CC[C@H](C)[C@H](NC(=O)[C@H](CO)NC(=O)[C@H](Cc1ccc(O)cc1)NC(=O)[C@H](CC(=O)O)NC(=O)[C@H](CO)NC(=O)[C@@H](NC(=O)[C@H](Cc1ccccc1)NC(=O)[C@@H](NC(=O)CNC(=O)[C@H](CCC(=O)O)NC(=O)C(C)(C)NC(=O)[C@H](Cc1ccc(O)cc1)NC)[C@@H](C)O)[C@@H](C)CC)C(=O)N[C@@H](C)C(=O)N[C@@H](CC(C)C)C(=O)N[C@@H](CC(=O)O)C(=O)N[C@@H](CCCNC(=N)N)C(=O)N[C@@H](CCCCNC(=O)CNC(=O)CNC(=O)CNC(=O)CNC(=O)CNC(=O)CCCCCCCCCCCCCCCCC(=O)O)C(=O)N[C@@H](C)C(=O)N[C@@H](CCC(N)=O)C(=O)NC(C)(C)C(=O)N[C@@H](CC(=O)O)C(=O)N[C@@H](Cc1ccccc1)C(=O)N[C@H](C(=O)N[C@@H](CC(N)=O)C(=O)N[C@@H](Cc1c[nH]c2ccccc12)C(=O)N[C@@H](CC(C)C)C(=O)N[C@@H](CC(C)C)C(=O)N[C@@H](C)C(=O)N[C@@H](CCC(N)=O)C(=O)N[C@@H](CO)C(=O)N1CCC[C@H]1C(=O)N[C@@H](CO)C(=O)N[C@@H](CO)C(=O)NCC(=O)N[C@@H](C)C(=O)N1CCC[C@H]1C(=O)N1CCC[C@H]1C(=O)N1CCC[C@H]1C(=O)N[C@@H](CO)C(N)=O)C(C)C [Compound 50, Me-Y-Aib-E-G-T-F-I-S-D-Y-S-I-A-L-D-R-Km-A-Q-Aib-D-F-V-N-W-L-L-A-Q-S-P-S-S-G-A-P-P-P-S-NH2]
Inhibition (%) of PYY-1119-induced emetic event (female beagle dogs): 97% (3 nmol/kg) | EC50 (human GLP-1R): 20.4 nM | Oral Glucose Tolerance Test Percent decrease in blood glucose AUC (%) over 60 mins (C57BL/6J mice): 89% and 69%
